Data taken from patent US20230203081A1, “LINCOSAMIDE ANTIBIOTICS AND USES THEREOF” (President and Fellows of Harvard College, priority 2020, published 2023).
Values after ≈ are worked out from the molar mass of the structure shown. Where two headings read alike, the source gives them in different places.

How the values were obtained:
Format in all cases: cell-based
[1] = test system: broad panel of different clinical isolates; experiment: microbe, parasite or virus in culture
In short: (§1)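 Inoculum for broth microdilution was 5×10^5 CFU/mL final, prepared from overnight 35° C blood-agar subcultures (separate handling for streptococcal and anaerobic strains); MICs read by CLSI broth microdilution or agar dilution.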

S. aureus BAA 977 iErmA = experiment: microbe, parasite or virus in culture; details: Staphylococcus aureus
In short: as §1

E. coli armA = experiment: microbe, parasite or virus in culture; details: Escherichia coli
In short: as §1

S. aureus MP-549 msrA = experiment: microbe, parasite or virus in culture; details: Staphylococcus aureus, MP549MSRA
In short: as §1

E. coli ΔTolC = experiment: microbe, parasite or virus in culture; details: Escherichia coli
In short: as §1

E. coli LptD = experiment: MIC (broth microdilution or agar dilution, CLSI); details: Escherichia coli, read-out: MIC
In short: as §1

S. pneumoniae ATCC 6303 = experiment: MIC (broth microdilution or agar dilution, CLSI)
In short: as §1

K. pneumoniae ATCC 10031 = experiment: MIC (broth microdilution or agar dilution, CLSI); details: Klebsiella pneumoniae, ATCC10031, K. pneumoniae HAV#008, ATCC 10031; read-out: MIC
In short: as §1

E. faecalis ATCC 29212 = experiment: MIC (broth microdilution or agar dilution, CLSI); details: Enterococcus faecalis, read-out: MIC
In short: as §1

[2] = test system: S. pneumoniae MMX 3028 cErmB; experiment: MIC (broth microdilution or agar dilution, CLSI)
In short: as §1

[3] = test system: S. aureus ATCC BAA-1707 (MRSA); experiment: MIC (broth microdilution or agar dilution, CLSI)
In short: as §1

[4] = test system: S. pneumoniae MMX 3031 cMefA; experiment: MIC (broth microdilution or agar dilution, CLSI); details: Streptococcus pneumoniae, MMX3031CMEFA, read-out: MIC
In short: as §1

S. aureus MMX 3035 cErmA = experiment: MIC (broth microdilution or agar dilution, CLSI)
In short: as §1

S. pneumoniae ATCC 49619 = experiment: MIC (broth microdilution or agar dilution, CLSI); details: Streptococcus pneumoniae, ATCC49619, S. pneumoniae HAV#003, ATCC 49619; read-out: MIC
In short: as §1

S. aureus hVISA = experiment: MIC (broth microdilution or agar dilution, CLSI)
In short: as §1

[5] = test system: S. pyogenes MMX 946; cErmB; experiment: MIC (broth microdilution or agar dilution, CLSI); details: for MIC: cErmB
In short: as §1

S. aureus ATCC 29213 = experiment: MIC (broth microdilution or agar dilution, CLSI); details: Staphylococcus aureus, read-out: MIC
In short: as §1

[6] = test system: E. faecalis MMX 847; cErmB; experiment: MIC (broth microdilution or agar dilution, CLSI); details: cErmB
In short: as §1

S. aureus ATCC 700699 = experiment: MIC (broth microdilution or agar dilution, CLSI); details: Staphylococcus aureus, read-out: MIC
In short: as §1

CSC1O[C@H]([C@H](NC(=O)[C@H]2NC[C@@H]3C[C@H](CC(C)C)CCO[C@H]32)[C@H](C)Cl)C(O)[C@@H](O)[C@H]1O (some centres unmarked) [FSA-513018b]
MIC ([1]; Staphylococcus aureus, S. aureus HAV#211, Clinical): 2 µg/mL (≈ 4.04 µM) | MIC ([1]; Staphylococcus aureus, S. aureus HAV#212, Clinical): 0.06 µg/mL (≈ 0.121 µM) | MIC ([1]; Staphylococcus aureus, S. aureus HAV#213, Clinical): 0.06 µg/mL (≈ 0.121 µM) | MIC ([1]; Staphylococcus aureus, S. aureus HAV#214, Clinical): 0.03 µg/mL (≈ 0.0606 µM) | MIC ([1]; Staphylococcus aureus, S. aureus HAV#215, Clinical): 0.06 µg/mL (≈ 0.121 µM) | MIC ([1]; Staphylococcus aureus, S. aureus HAV#216, Clinical, cfr): 2 µg/mL (≈ 4.04 µM) | MIC ([1]; Staphylococcus aureus, VISA, S. aureus HAV#203, Clinical (VISA)): 1 µg/mL (≈ 2.02 µM) | MIC ([1]; Staphylococcus epidermidis, S. epidermidis HAV# 275 Clinical, cfr): 8 µg/mL (≈ 16.2 µM) | MIC ([1]; Staphylococcus epidermidis, S. epidermidis HAV# 276, cfr): > 16 µg/mL | MIC ([1]; Staphylococcus epidermidis, S. epidermidis HAV#277, Line R): 16 µg/mL (≈ 32.3 µM) | MIC ([1]; Staphylococcus epidermidis, S. epidermidis HAV#278 Line R): 32 µg/mL (≈ 64.6 µM) | MIC ([1]; Staphylococcus epidermidis, S. epidermidis HAV#279, Line R): 0.125 µg/mL (≈ 0.252 µM) | MIC ([1]; Staphylococcus haemolyticus, S. haemolyticus 5052, Line R & Methicillin R): 0.06 µg/mL (≈ 0.121 µM) | MIC ([1]; Staphylococcus haemolyticus, S. haemolyticus HAV#252, Line R & Methicillin R): 0.125 µg/mL (≈ 0.252 µM) | MIC ([1]; Streptococcus pneumoniae, ATCC700673, S. pneumoniae HAV#352, ATCC 700673, MDR): 0.5 µg/mL (≈ 1.01 µM) | MIC ([1]; Streptococcus pneumoniae, ATCCBAA255, S. pneumoniae HAV#354, ATCC-BAA-255): 0.125 µg/mL (≈ 0.252 µM) | MIC ([1]; Streptococcus pneumoniae, ATCCBAA334, S. pneumoniae HAV#353, ATCC-BAA-334): 0.125 µg/mL (≈ 0.252 µM) | MIC ([1]; Streptococcus pneumoniae, S. pneumoniae HAV#356, Clinical): 0.25 µg/mL (≈ 0.505 µM) | MIC ([1]; Streptococcus pneumoniae, S. pneumoniae HAV#358, Clinical): 0.125 µg/mL (≈ 0.252 µM) | MIC (S. aureus BAA 977 iErmA; BAA977): ≤ 0.06 µg/mL | MIC (S. aureus BAA 977 iErmA; BAA-977 / MRSA): 0.06 µg/mL (≈ 0.121 µM) | MIC (S. aureus BAA 977 iErmA; BAA-977 / MRSA, 24 h): 2 µg/mL (≈ 4.04 µM) | MIC (E. coli armA; E. coli HAV#056, Clinical, armA): 8 µg/mL (≈ 16.2 µM) | MIC (E. coli armA; E. coli armA): 8 µg/mL (≈ 16.2 µM) | MIC (S. aureus MP-549 msrA; S. aureus MP-549 msrA): ≤ 0.06 µg/mL | MIC (S. aureus MP-549 msrA; S. aureus HAV#032, MP-549, MSR(A)): 0.06 µg/mL (≈ 0.121 µM) | MIC (E. coli ΔTolC; E. coli HAV#038, ΔTolC): 0.5 µg/mL (≈ 1.01 µM) | MIC (E. coli ΔTolC; E. coli ΔTolC): 0.5 µg/mL (≈ 1.01 µM) | MIC (E. coli LptD; E. coli HAV#040, LptD): 1 µg/mL (≈ 2.02 µM) | MIC (E. coli LptD; E. coli LptD): 1 µg/mL (≈ 2.02 µM) | MIC (S. pneumoniae ATCC 6303; S. pneumoniae HAV#351, ATCC 6303): 0.03 µg/mL (≈ 0.0606 µM) | MIC (S. pneumoniae ATCC 6303; Streptococcus pneumoniae, ATCC6303, S. pneumoniae ATCC 6303, read-out: MIC): 0.03 µg/mL (≈ 0.0606 µM) | MIC (K. pneumoniae ATCC 10031): 0.25 µg/mL (≈ 0.505 µM) | MIC (E. faecalis ATCC 29212; ATCC29212, E. faecalis ATCC 29212): ≤ 0.06 µg/mL | MIC (E. faecalis ATCC 29212; ATCC29212, E. faecalis HAV#005, ATCC 29212): 0.06 µg/mL (≈ 0.121 µM) | MIC ([2]; S. pneumoniae HAV#033, MMX 3028, cErmB): 0.25 µg/mL (≈ 0.505 µM) | MIC lower than that of clindamycin (fold) ([2]; S. pneumoniae, c-ermB-mediated resistance): ≥ 1,000 × | MIC ([2]; Streptococcus pneumoniae, MMX3028CERMB, S. pneumoniae MMX 3028 cErmB, read-out: MIC): 0.25 µg/mL (≈ 0.505 µM) | MIC ([3]; S. aureus HAV#016, ATCC BAA-1707, MRSA): 0.06 µg/mL (≈ 0.121 µM) | MIC ([3]; Staphylococcus aureus, S. aureus ATCC BAA-1707 (MRSA), read-out: MIC): 0.06 µg/mL (≈ 0.121 µM) | MIC ([4]; S. pneumoniae HAV#034, MMX 3031, cMefA): 0.03 µg/mL (≈ 0.0606 µM) | MIC ([4]; S. pneumoniae MMX 3031 cMefA): ≤ 0.06 µg/mL | MIC (S. aureus MMX 3035 cErmA; S. aureus HAV#031, MMX 3035, cErmA): 4 µg/mL (≈ 8.08 µM) | MIC (S. aureus MMX 3035 cErmA; Staphylococcus aureus, MMX3035CERMA, S. aureus MMX 3035 cErmA, read-out: MIC): 4 µg/mL (≈ 8.08 µM) | MIC (S. pneumoniae ATCC 49619): 0.015 µg/mL (≈ 0.0303 µM) | MIC (S. aureus hVISA; S. aureus HAV#204, hVISA): 1 µg/mL (≈ 2.02 µM) | MIC (S. aureus hVISA; Staphylococcus aureus, S. aureus hVISA, read-out: MIC): 1 µg/mL (≈ 2.02 µM) | MIC ([5]; S. pyogenes HAV#035, MMX 946, mac-resistant): 0.25 µg/mL (≈ 0.505 µM) | MIC lower than that of clindamycin (fold) ([5]; S. pyogenes, c-ermB-mediated resistance): ≥ 1,000 × | MIC ([5]; Streptococcus pyogenes, S. pyogenes MMX 946, read-out: MIC): 0.25 µg/mL (≈ 0.505 µM) | MIC (S. aureus ATCC 29213; ATCC29213, S. aureus ATCC 29213): ≤ 0.06 µg/mL | MIC (S. aureus ATCC 29213; ATCC29213, S. aureus HAV#001, ATCC 29213, MP-549): 0.06 µg/mL (≈ 0.121 µM) | MIC ([6]; E. faecalis HAV#036, MMX 847, mac-resistant): 1 µg/mL (≈ 2.02 µM) | MIC ([6]; Enterococcus faecalis, E. faecalis MMX 847, read-out: MIC): 1 µg/mL (≈ 2.02 µM) | MIC (S. aureus ATCC 700699; ATCC700699, S. aureus ATCC 700699): 2 µg/mL (≈ 4.04 µM) | MIC (S. aureus ATCC 700699; S. aureus HAV#202, ATCC 700699 (VISA)): 2 µg/mL (≈ 4.04 µM)
